Measured values taken from patent publication US8461328B2, “Tricyclic heterocyclic compounds, compositions and methods of use thereof” (Genentech, Inc., priority 2010, dated 2013).

Columns and labels:
Type in all cases: biochemical
[1] = molecular target: T1, JAK3 (Homo sapiens, UniProt P52333); assay: JAK3 inhibition (Table 4); settings: read-out: JAK3 Ki
T1 construct: made in house; host or cells: SF9 insect cells (baculovirus)

[2] = molecular target: T2, JAK2 (Homo sapiens, UniProt O60674); assay: JAK2 inhibition (Table 4); settings: read-out: JAK2 Ki
T2 construct: made in house; host or cells: SF9 insect cells (baculovirus)
T2 sequence (O60674 812-1132): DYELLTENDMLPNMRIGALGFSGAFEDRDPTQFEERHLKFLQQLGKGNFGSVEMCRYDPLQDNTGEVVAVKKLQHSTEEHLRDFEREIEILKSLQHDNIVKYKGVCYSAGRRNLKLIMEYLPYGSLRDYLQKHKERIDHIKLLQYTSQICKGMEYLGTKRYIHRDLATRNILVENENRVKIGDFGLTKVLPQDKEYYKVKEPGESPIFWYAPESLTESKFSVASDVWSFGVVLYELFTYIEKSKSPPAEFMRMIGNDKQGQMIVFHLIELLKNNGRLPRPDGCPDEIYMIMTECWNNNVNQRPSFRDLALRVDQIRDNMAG

[3] = molecular target: T3, JAK1 (Homo sapiens, UniProt P23458); assay: JAK1 inhibition (Table 4); settings: read-out: JAK1 Ki
T3 construct: made in house; host or cells: SF9 insect cells (baculovirus)
T3 sequence (P23458 852-1154): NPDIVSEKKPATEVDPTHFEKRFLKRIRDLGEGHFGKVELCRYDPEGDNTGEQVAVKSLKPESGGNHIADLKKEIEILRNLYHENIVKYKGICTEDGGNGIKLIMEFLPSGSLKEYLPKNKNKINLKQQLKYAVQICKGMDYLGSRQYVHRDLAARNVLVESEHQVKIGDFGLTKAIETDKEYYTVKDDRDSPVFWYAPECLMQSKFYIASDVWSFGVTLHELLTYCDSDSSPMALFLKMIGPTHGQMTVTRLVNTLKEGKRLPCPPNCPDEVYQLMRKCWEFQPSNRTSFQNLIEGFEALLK

[4] = molecular target: T4, TYK2 (Homo sapiens, UniProt P29597); assay: TYK2 inhibition (Table 4)
T4 construct: made in house; host or cells: SF9 insect cells (baculovirus)
T4 sequence (P29597 873-1187): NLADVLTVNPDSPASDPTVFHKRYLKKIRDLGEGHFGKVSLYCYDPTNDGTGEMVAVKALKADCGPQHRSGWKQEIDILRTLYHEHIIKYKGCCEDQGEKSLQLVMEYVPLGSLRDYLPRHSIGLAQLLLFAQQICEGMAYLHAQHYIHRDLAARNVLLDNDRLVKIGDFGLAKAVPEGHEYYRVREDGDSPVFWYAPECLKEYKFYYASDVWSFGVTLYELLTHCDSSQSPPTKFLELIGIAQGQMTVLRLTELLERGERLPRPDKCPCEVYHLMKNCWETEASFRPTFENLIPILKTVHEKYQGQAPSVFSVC

T1 sequence (P52333 783-1124): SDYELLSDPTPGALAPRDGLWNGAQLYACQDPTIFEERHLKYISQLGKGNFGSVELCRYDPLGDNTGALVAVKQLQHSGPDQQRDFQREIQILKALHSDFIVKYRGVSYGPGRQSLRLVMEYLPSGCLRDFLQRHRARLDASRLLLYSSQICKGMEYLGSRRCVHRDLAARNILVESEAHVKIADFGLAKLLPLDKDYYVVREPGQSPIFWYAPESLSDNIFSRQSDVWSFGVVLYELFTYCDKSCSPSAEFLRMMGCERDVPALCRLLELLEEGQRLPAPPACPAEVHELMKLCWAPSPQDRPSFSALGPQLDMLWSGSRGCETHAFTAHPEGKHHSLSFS

Ki [1] | Ki [2] | Ki [3] | Ki [4] | SMILES
1450 nM | 854 nM | 227 nM | 1990 nM | FC1CNCCC1n1nnc2cnc3[nH]ccc3c21 (racemic) [Example 518, 1-(3-Fluoro-piperidin-4-yl)-1,6-dihydro-1,2,3,5,6-pentaaza-as-indacene]
255 nM | 151 nM | 145 nM | 1020 nM | O=C([C@H]1CC[C@H](n2cnc3cnc4[nH]ccc4c32)CC1)N1CCOCC1 [Example 166, Trans Morpholin-4-yl-[4-(6H-1,2,3,5,6-tetraaza-as-indacen-1-yl)-cyclohexyl]-methanone]
80.2 nM | 36.2 nM | 11.3 nM | 121 nM | CCOC(=O)NCc1nc2cnc3[nH]ccc3c2n1C1CCN(CCC#N)CC1 [Example 493, {1-[1-(2-Cyano-ethyl)-piperidin-4-yl]-1,6-dihydro-1,3,5,6-tetraaza-as-indacen-2-ylmethyl}-carbamic acid ethyl ester]
20.6 nM | 67.5 nM | 28.1 nM | 207 nM | CC1(n2cnc3cnc4[nH]ccc4c32)CCCN(C(=O)CC#N)C1 (racemic) [Example 706, 3-[3-Methyl-3-(6H-1,2,3,5,6-tetraaza-as-indacen-1-yl)-piperidin-1-yl]-3-oxo-propionitrile]
114 nM | 83.2 nM | 39.6 nM | 298 nM | N#CCCN1CCC(n2c(COC3CCOCC3)nc3cnc4[nH]ccc4c32)CC1 [Example 837, 3-{4-[2-(Tetrahydro-pyran-4-yloxymethyl)-6H-1,3,5,6-tetraaza-as-indacen-1-yl]-piperidin-1-yl}-propionitrile]
316 nM | 333 nM | 45.6 nM | 438 nM | CNC(=O)Cc1nc2cnc3[nH]ccc3c2n1C1CCCOC1 (racemic) [Example 961, N-Methyl-2-[1-(tetrahydro-pyran-3-yl)-1,6-dihydro-1,3,5,6-tetraaza-as-indacen-2-yl]-acetamide]
201 nM | 27 nM | 11.6 nM | 119 nM | O=C(N[C@H]1CC[C@H](n2cnc3cnc4[nH]ccc4c32)CC1)C1CC1 [Example 572, trans Cyclopropanecarboxylic acid [4-(6H-1,3,5,6-tetraaza-as-indacen-1-yl)-cyclohexyl]-amide]
4.65 nM | 18.6 nM | 2.53 nM | 45.5 nM | COCCN1CC[C@@H](n2c([C@@H](C)O)nc3cnc4[nH]ccc4c32)C(F)(F)C1 [Example 1014, (R)-1-{1-[(R)-3,3-Difluoro-1-(2-methoxy-ethyl)-piperidin-4-yl]-1,6-dihydro-1,3,5,6-tetraaza-as-indacen-2-yl}-ethanol]
1870 nM | 1110 nM | 391 nM | 3430 nM | c1cc2c(ncc3ncn(CC4CCNC4)c32)[nH]1 (racemic) [Example 490, 1-Pyrrolidin-3-ylmethyl-1,6-dihydro-1,3,5,6-tetraaza-as-indacene]
1930 nM | 217 nM | 122 nM | 2720 nM | CN1CCOCC1C(=O)N1CCC(n2cnc3cnc4[nH]ccc4c32)CC1 (single isomer, unassigned) [Example 197a, (4-Methyl-morpholin-3-yl)-[4-(6H-1,2,3,5,6-tetraaza-as-indacen-1-yl)-piperidin-1-yl]-methanone]
1360 nM | 483 nM | 106 nM | 329 nM | CC1(n2cnc3cnc4[nH]ccc4c32)CCN(C(=O)CC#N)CC1 [Example 579, 3-[4-Methyl-4-(6H-1,2,3,5,6-tetraaza-as-indacen-1-yl)-piperidin-1-yl]-3-oxo-propionitrile]
152 nM | 43.1 nM | 15.2 nM | 129 nM | Cc1nc2cnc3[nH]ccc3c2n1[C@H]1CC[C@H](OC(=O)N(C)C)CC1 [Example 605, Trans dimethyl-carbamic acid 4-(2-methyl-6H-1,2,3,5,6-tetraaza-as-indacen-1-yl)-cyclohexyl ester]
159 nM | 307 nM | 34.3 nM | 273 nM | O=C(Cc1nc2cnc3[nH]ccc3c2n1C1CCCOC1)N1CCCC(O)C1 (racemic) [Example 982, 1-(3-Hydroxy-piperidin-1-yl)-2-[1-(tetrahydro-pyran-3-yl)-1,6-dihydro-1,3,5,6-tetraaza-as-indacen-2-yl]-ethanone]
904 nM | 1860 nM | 65.1 nM | 232 nM | CCOC(=O)N1CC[C@H](n2c([C@@H](C)O)nc3cnc4[nH]ccc4c32)C1 [Example 931, (S)-3-[2-((R)-1-Hydroxy-ethyl)-6H-1,3,5,6-tetraaza-as-indacen-1-yl]-pyrrolidine-1-carboxylic acid ethyl ester]
250 nM | 7.84 nM | 4.96 nM | 77.1 nM | CS(=O)(=O)N1CCC(n2nnc3cnc4[nH]ccc4c32)CC1 [Example 233, 1-(1-Methanesulfonyl-piperidin-4-yl)-1,6-dihydro-1,2,3,5,6-pentaaza-as-indacene]
445 nM | 437 nM | 49.5 nM | 994 nM | CS(=O)(=O)NCCc1nc2cnc3[nH]ccc3c2n1[C@@H]1CCCOC1 [Example 862, (R)—N-{2-[1-(Tetrahydro-pyran-3-yl)-1,6-dihydro-1,3,5,6-tetraaza-as-indacen-2-yl]-ethyl}-methanesulfonamide]
335 nM | 337 nM | 36.2 nM | 96.5 nM | COC1CCCC(n2c(C)nc3cnc4[nH]ccc4c32)C1 (stereo not drawn) [Example 889, 1-(3-Methoxy-cyclohexyl)-2-methyl-1,6-dihydro-1,3,5,6-tetraaza-as-indacene]
61.9 nM | 38.6 nM | 4.15 nM | 188 nM | CC(C)CC(=O)NCCc1nc2cnc3[nH]ccc3c2n1C1CCN(CCC#N)CC1 [Example 376, N-(2-{1-[1-(2-Cyano-ethyl)-piperidin-4-yl]-1,6-dihydro-1,3,5,6-tetraaza-as-indacen-2-yl}-ethyl)-3-methyl-butyramide]
3400 nM | 363 nM | 198 nM | 1820 nM | CC(C)(C)OC(=O)N1CCCC1(C)C(=O)N1CCC(n2cnc3cnc4[nH]ccc4c32)CC1 (racemic) [Example 244, 2-Methyl-2-[4-(6H-1,3,5,6-tetraaza-as-indacen-1-yl)-piperidine-1-carbonyl]-pyrrolidine-1 carboxylic acid tert-butyl ester]
44 nM | 116 nM | 59.5 nM | 75.5 nM | C[C@@H](O)c1nc2cnc3[nH]ccc3c2n1C1CCC(NCC(F)(F)F)CC1 (stereo partly drawn) [Example 1009, (R)-1-{1-[4-(2,2,2-Trifluoro-ethylamino)-cyclohexyl]-1,6-dihydro-1,3,5,6-tetraaza-as-indacen-2-yl}-ethanol]
126 nM | 125 nM | 26.2 nM | 321 nM | N#CCCN1CCC(n2c(CC3CCCOC3)nc3cnc4[nH]ccc4c32)CC1 (racemic) [Example 409, 3-{4-[2-(Tetrahydro-pyran-3-ylmethyl)-6H-1,3,5,6-tetraaza-as-indacen-1-yl]-piperidin-1-yl}-propionitrile]
195 nM | 77.1 nM | 4.01 nM | 138 nM | CS(=O)(=O)NCCc1nc2cnc3[nH]ccc3c2n1[C@H]1CCCOC1 [Example 854, (S)—N-{2-[1-(Tetrahydro-pyran-3-yl)-1,6-dihydro-1,3,5,6-tetraaza-as-indacen-2-yl]-ethyl}-methanesulfonamide]
185 nM | 20.9 nM | 2.06 nM | 7.22 nM | N#C[C@H]1CC[C@H](n2c(CO)nc3cnc4[nH]ccc4c32)CC1 [Example 642, Trans 4-(2-hydroxymethyl-6H-1,2,3,5,6-tetraaza-as-indacen-1-yl)cyclohexane carbonitrile]
1530 nM | 179 nM | 55.8 nM | 832 nM | O=C(CN1CCCCC1=O)N1CCC(n2cnc3cnc4[nH]ccc4c32)CC1 [Example 441, 1-{2-Oxo-2-[4-(6H-1,3,5,6-tetraaza-as-indacen-1-yl)-piperidin-1-yl]-ethyl}-piperidin-2-one]
3.34 nM | 19.1 nM | 1.27 nM | 99.1 nM | Cc1cc(CN2CCC(n3c(C(C)O)nc4cnc5[nH]ccc5c43)C(F)C2)on1 (stereo not drawn) [Example 895, 1-{1-[3-Fluoro-1-(3-methyl-isoxazol-5-ylmethyl)-piperidin-4-yl]-1,6-dihydro-1,3,5,6-tetraaza-as-indacen-2-yl}-ethanol]
111 nM | 57.1 nM | 3.89 nM | 149 nM | O=C(N[C@H]1CC[C@H](n2c(CO)nc3cnc4[nH]ccc4c32)CC1)OCC1CC1 [Example 601, Trans[4-(2-hydroxymethyl-6H-1,2,3,5,6-tetraaza-as-indacen-1-yl)-cyclohexyl]-carbamic acid cyclopropylmethyl ester]
310 nM | 136 nM | 21.4 nM | 443 nM | CC(C)(C)OC(=O)N1CC(CN[C@H]2CC[C@H](n3cnc4cnc5[nH]ccc5c43)CC2)C1 [Example 557, trans 3-{[4-(6H-1,3,5,6-Tetraaza-as-indacen-1-yl)-cyclohexylamino]-methyl}-azetidine-1-carboxylic acid tert-butyl ester]
